The text below walks through data of US4421747A, “Inflammation-preventing pharmaceutical composition of oral administration” (A. Nattermann & Cie. GmbH, priority 1981, dated 1983).

One series relates to bleeding stomach ulcer. The series can be described thus: Ulcer development (bleeding stomach ulcer provoked by oral application, mean ulcer factor). It counts as in vivo, Wistar-rats. The note with it: for ED50: Rattus norvegicus, read-out: oral ED50. As to the method: The development of the ulcer was determined in accordance with
L. Mariani, "Eur. J. Toxicol.
R. Menguy & L. Desbaillets, "Proc. Soc. exp.
Ten male and ten female Wistar-rats (120 to 150 grams, in weight) which have not fed for 16 hours, were used for these tests. The bleeding stomach ulcer was provoked by oral application of the active substance. After 3.5 hours, the animals are killed and the stomach extracted, opened along the wide curvature and stretched onto a "Styropor" plate. The mean ulcer factor of the test and of the control group are determined. The variation is weighted in percentages as prevention of the ulcer formation.

The subject of another series is rat paw oedema. The series can be described thus: rat-paw-oedema test (carragenin). It counts as in vivo. Particulars: for ED50: 3 h, read-out: oral ED50; for Prevention of Oedema: Table VII, 12 animals; for Effectiveness applied to Rat Paw Oedema: Table VIII, Dosage 10.0 mg/kg KGW, 12 Animals, prevention of oedema in percentages. As to the method: On one hind paw of each rat (weight 200 to 250 grams) an oedema was caused to develop by the "subplantane" application of carragenin (0.5% in a 0.9% NaCl solution) in the amount of 0.1 ml solution per paw.
After the application of the test substance, its volume not to exceed 10 ml per kg of body weight, the volume of the paw is determined in an overflow ("Ueberlauf"). After three hours the final value is ascertained. The test is carried out for every dosage by using 10 test and 10 control animals of one sex and repeated with the identical number of animals of the other sex. For the purpose of evaluation, the prevention of the oedema is expressed in percentages relative to the control group.

[1] abbreviates: reference substances, rat-paw-oedema test, oral.
Where [2] appears, read: Table V, oral, Dosage One cc per mg/kg of Body Weight (KGW), by proportion Indometacine:Phospholipon 100.

Each structure is given as a SMILES string. Like-named read-outs stand apart in the source and are kept apart here.

The term ED50 denotes the dose at which the effect has come halfway, by size or by number of responders.

Take `CC(=O)Oc1ccccc1C(=O)O` [Acetyl-Salicylic Acid, acetyl-salicylic acid]: the “Ulcer Index” value is given as 1.20 ± 0.20 in the series on bleeding stomach ulcer (Table I, oral, 200 mg/kg KGW, mixture molar ratio Acetyl-Salicylic Acid:Phospholipon 100 = 2:1, 3.5 h, n=10); 1.10 ± 0.50 with bleeding stomach ulcer (Table I, oral, 400 mg/kg KGW, mixture molar ratio Acetyl-Salicylic Acid:Phospholipon 100 = 2:1, 3.5 h, n=10); 1.20 ± 0.20 with bleeding stomach ulcer (Table I, oral, 800 mg/kg KGW, mixture molar ratio Acetyl-Salicylic Acid:Phospholipon 100 = 2:1, 3.5 h, n=10). The “Incidence of Ulcers” value worked out at 70% in the series with bleeding stomach ulcer (Table I, oral, 200 mg/kg KGW, without resp. with p^+ (Phospholipon 100, 2:1)); 50% with bleeding stomach ulcer (Table I, oral, 400 mg/kg KGW, without resp. with p^+ (Phospholipon 100, 2:1)); 80% in the series on bleeding stomach ulcer (Table I, oral, 800 mg/kg KGW, without resp. with p^+ (Phospholipon 100, 2:1)).
As to `CC(=O)OCC(=O)[C@@]1(O)CC[C@H]2[C@@H]3CCC4=CC(=O)CC[C@]4(C)[C@H]3[C@@H](O)C[C@@]21C` [Hydrocortisoneacetate], the ED50 in the series with rat paw oedema (setting [1]) came to 19 mg/kg.
For the compound `CC(C)Cc1ccc(C(C)C(=O)O)cc1` (stereo not shown) [Ibuprofen, 2-(4-isobutylphenyl)-propinic acid], the “Incidence of Ulcers” value came out at 20% with bleeding stomach ulcer (Table VI, oral, 5 mg/kg KGW, one value printed for without and with p^+ (Phospholipon 100, 1:1)); 20% with bleeding stomach ulcer (Table VI, oral, 10 mg/kg KGW, without resp. with p^+ (Phospholipon 100, 1:1)); 40% with bleeding stomach ulcer (Table VI, oral, 20 mg/kg KGW, without resp. with p^+ (Phospholipon 100, 1:1)); 50% in the series on bleeding stomach ulcer (Table VI, oral, 30 mg/kg KGW, without resp. with p^+ (Phospholipon 100, 1:1)). Moreover, the “Ulcer Index” value is reported as 0.20 ± 0.13 in the series on bleeding stomach ulcer (Table VI, rat, oral, 5 mg/kg KGW, mixture molar ratio Ibuprofen:Phospholipon 100 = 1:1, 3.5 h, n=10); 0.30 ± 0.15 in the series with bleeding stomach ulcer (Table VI, rat, oral, 10 mg/kg KGW, mixture molar ratio Ibuprofen:Phospholipon 100 = 1:1, 3.5 h, n=10); 0.50 ± 0.22 in the series on bleeding stomach ulcer (Table VI, rat, oral, 20 mg/kg KGW, mixture molar ratio Ibuprofen:Phospholipon 100 = 1:1, 3.5 h, n=10); 0.71 ± 0.30 in the series with bleeding stomach ulcer (Table VI, rat, oral, 30 mg/kg KGW, mixture molar ratio Ibuprofen:Phospholipon 100 = 1:1, 3.5 h, n=10).
Regarding `COc1ccc2c(c1)c(CC(=O)O)c(C)n2C(=O)c1ccc(Cl)cc1` [Indometacine], the “Ulcer Index” value in the series on bleeding stomach ulcer (Table III, oral, 5 mg/kg KGW, mixture molar ratio Indometacine:Phospholipon 100 = 2:1, 3.5 h, n=10) was 1.20 ± 0.30; in the series with bleeding stomach ulcer (Table III, oral, 10 mg/kg KGW, mixture molar ratio Indometacine:Phospholipon 100 = 2:1, 3.5 h, n=10), 1.90 ± 0.90; with bleeding stomach ulcer (Table III, oral, 20 mg/kg KGW, mixture molar ratio Indometacine:Phospholipon 100 = 2:1, 3.5 h, n=10) it was 1.50 ± 0.40; with bleeding stomach ulcer (Table IV, rat, oral, 5 mg/kg KGW, mixture molar ratio Indometacine:Phospholipon 45 = 1:2, 3.5 h, n=10), 2.10 ± 0.36; in the series on bleeding stomach ulcer (Table IV, rat, oral, 10 mg/kg KGW, mixture molar ratio Indometacine:Phospholipon 45 = 1:2, 3.5 h, n=10) it was 2.20 ± 0.42; in the series with bleeding stomach ulcer (Table IV, rat, oral, 20 mg/kg KGW, mixture molar ratio Indometacine:Phospholipon 45 = 1:2, 3.5 h, n=10), 2.30 ± 0.47. The “Ulcer Index” value in the series on bleeding stomach ulcer (Table IV, rat, oral, 30 mg/kg KGW, mixture molar ratio Indometacine:Phospholipon 45 = 1:2, 3.5 h, n=10) is 2.70 ± 0.30; in the series with bleeding stomach ulcer (setting [2]), 2.60 ± 0.22. In addition, the “Incidence of Ulcers” value with bleeding stomach ulcer (Table III, oral, 5 mg/kg KGW, without resp. with p^+ (Phospholipon 100, 2:1)) was 70%; in the series with bleeding stomach ulcer (Table III, oral, 10 mg/kg KGW, without resp. with p^+ (Phospholipon 100, 2:1)), 90%; with bleeding stomach ulcer (Table III, oral, 20 mg/kg KGW, without resp. with p^+ (Phospholipon 100, 2:1)) it was 100%; with bleeding stomach ulcer (Table IV, oral, 5 mg/kg KGW, without resp. with p^+ (Phospholipon 45, 1:2)) it was 80%; with bleeding stomach ulcer (Table IV, oral, 10 mg/kg KGW, one value printed for without and with p^+ (Phospholipon 45, 1:2)), 90%; with bleeding stomach ulcer (Table IV, oral, 20 mg/kg KGW, one value printed for without and with p^+ (Phospholipon 45, 1:2)) it was 100%. Moreover, the “Incidence of Ulcers” value in the series with bleeding stomach ulcer (Table IV, oral, 30 mg/kg KGW, without resp. with p^+ (Phospholipon 45, 1:2)) came out at 80%. The “Variation of Mean Ulcer Factor: Indometacine With p^+ Versus Without p^+” value in the series with bleeding stomach ulcer (setting [2]) came out at 0%. Besides, the ED50 in the series on rat paw oedema (Rattus norvegicus, po) stood at 7.24 mg/kg. The “Prevention of Oedema” value in the series with rat paw oedema (Indometacine 3.16 mg/kg p.o., mixture with Phospholipon 100 7.1 mg/kg p.o.) was -47.3%; with rat paw oedema (Indometacine 10 mg/kg p.o., mixture with Phospholipon 100 22.4 mg/kg p.o.), -37.8%. The “Effectiveness applied to Rat Paw Oedema” value in the series on rat paw oedema (3 hours elapsed after application) is 32; with rat paw oedema (4 hours elapsed after application), 40; with rat paw oedema (5 hours elapsed after application) it was 28; in the series on rat paw oedema (6 hours elapsed after application), 27.
As for `CCCCC1C(=O)N(c2ccccc2)N(c2ccccc2)C1=O` [Phenylbutazone, 4-butyl-1,2-diphenylpyrazolidine-3,5-dion], the “Ulcer Index” value was 0.70 ± 0.05 with bleeding stomach ulcer (Table II, oral, 25 mg/kg KGW, mixture molar ratio Phenylbutazone:Phospholipon 100 = 2:1, 3.5 h, n=10); 1.60 ± 0.42 with bleeding stomach ulcer (Table II, oral, 50 mg/kg KGW, mixture molar ratio Phenylbutazone:Phospholipon 100 = 2:1, 3.5 h, n=10); 1.80 ± 0.84 with bleeding stomach ulcer (Table II, oral, 100 mg/kg KGW, mixture molar ratio Phenylbutazone:Phospholipon 100 = 2:1, 3.5 h, n=10); 1.90 ± 0.66 in the series with bleeding stomach ulcer (Table II, oral, 200 mg/kg KGW, mixture molar ratio Phenylbutazone:Phospholipon 100 = 2:1, 3.5 h, n=10). The “Incidence of Ulcers” value came out at 70% in the series on bleeding stomach ulcer (Table II, oral, 25 mg/kg KGW, without resp. with p^+ (Phospholipon 100, 2:1)); 60% with bleeding stomach ulcer (Table II, oral, 50 mg/kg KGW, without resp. with p^+ (Phospholipon 100, 2:1)); 100% in the series with bleeding stomach ulcer (Table II, oral, 100 mg/kg KGW, without resp. with p^+ (Phospholipon 100, 2:1)); 80% with bleeding stomach ulcer (Table II, oral, 200 mg/kg KGW, one value printed for without and with p^+ (Phospholipon 100, 2:1)). Also, in the series on rat paw oedema (setting [1]), the ED50 worked out at 100 mg/kg.
On to `CN1C2CCC1CC(OC(=O)C(CO)c1ccccc1)C2` (stereo not shown) [atropinesulphate], for which, in the series on bleeding stomach ulcer (po), the ED50 was found to be 17.1 mg/kg.
Take `CN(C)CCCN1c2ccccc2Sc2ccc(Cl)cc21` [chloropromazine]: the ED50 with bleeding stomach ulcer (reference substances, ulcer test, oral) was found to be 105 mg/kg.
